Values quoted from earlier work in patent US7204996B2, “Method of cancer treatment” (Board of Regents, The University of Texas System, priority 1999, dated 2007).

What was measured:
[1] = system: MDR overexpressing HL-60 cells; details: for resistance index decrease on coincubation with verapamil: in the presence of verapamil

Question: For COc1cccc2c1C(=O)c1c(O)c3c(c(O)c1C2=O)C[C@@](O)(C(=O)CO)C[C@@H]3O[C@H]1C[C@H](N)[C@H](O)[C@H](C)O1 [doxorubicin, reference compound], which “resistance index decrease on coincubation with verapamil” value (“resistance index decrease” below) [1] is on record?
Answer: The value was 4.5 fold.

Question: For C[C@@H]1O[C@@H](O[C@H]2C[C@](O)(C(=O)CO)Cc3c(O)c4c(c(O)c32)C(=O)c2ccccc2C4=O)[C@H](I)[C@H](O)[C@H]1O [Annamycin, (7S,9S)-4-demethoxy-7-O-(2,6-dideoxy-2-iodo-alphamannopryanosyl) adriamycinone], which “solubility in water solutions” value is on record?
Answer: The value was “completely insoluble”.

Question: What about the cytotoxicity ([1]; MDR overexpressing HL-60 cells) of the same compound?
Answer: The cytotoxicity was “cytotoxic”.

Question: And the resistance index ([1]; compared with idarubicin and doxorubicin)?
Answer: The resistance index was “lower than that of idarubicin and doxorubicin”.

Question: And the “resistance index decrease” value [1]?
Answer: Its value is “did not change”.

Question: With CC(=O)[C@]1(O)Cc2c(O)c3c(c(O)c2[C@@H](O[C@H]2C[C@H](N)[C@H](O)[C@H](C)O2)C1)C(=O)c1ccccc1C3=O [idarubicin, reference compound] as the compound, how does the “resistance index decrease” value [1] read?
Answer: The value was 2 fold.
